Among the data in US20050153992A1, “Pyrrolopyrimidine thion derivatives” (TEIJIN PHARMA LIMITED, priority 2003, published 2005) are IC50 values, retold here.

Molecules are shown by their SMILES.

For this assay, the target named is recombinant human GSK-3β (Homo sapiens, UniProt P49841). In words: Determination of Inhibition of GSK-3 Activity (phospho-glycogen synthase peptide-2, [γ-33P]ATP, scintillation counting). It is filed as biochemical. The following applies: 20 μM ATP, 20 minutes at room temperature; read-out: GSK-3 inhibitor activity values (IC50 values). The procedure: Determination of Inhibition of GSK-3 Activity
Sequence of recombinant human GSK-3β (P49841 whole entry): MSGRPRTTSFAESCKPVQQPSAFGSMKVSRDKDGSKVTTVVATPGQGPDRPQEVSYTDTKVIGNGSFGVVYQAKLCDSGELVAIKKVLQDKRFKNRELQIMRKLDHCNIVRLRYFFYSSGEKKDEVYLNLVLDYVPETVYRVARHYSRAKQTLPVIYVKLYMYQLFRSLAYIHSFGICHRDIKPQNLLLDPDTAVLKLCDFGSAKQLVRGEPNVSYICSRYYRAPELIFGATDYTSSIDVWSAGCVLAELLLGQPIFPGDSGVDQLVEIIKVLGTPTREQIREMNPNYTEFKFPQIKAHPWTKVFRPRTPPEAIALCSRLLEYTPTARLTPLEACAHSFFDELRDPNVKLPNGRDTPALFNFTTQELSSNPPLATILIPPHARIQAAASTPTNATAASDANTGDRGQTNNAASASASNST
The reaction was initiated by adding 25 μL of phospho-glycogen synthase peptide-2 substrate solution [containing 6 μM phospho-glycogen synthase peptide-2, 20 μM ATP, 16 mM MOPS buffer (pH 7.0), 0.2 mM EDTA, 20 mM magnesium acetate, 0.1 μ Ci[γ-^33P]ATP (relative activity: approximately 110 TBq/mmol)] to 5 μL of each test compound using 5% dimethylsulfoxide as a solvent, and further adding 20 μL of GSK-3β enzyme solution [containing 10 mU recombinant human GSK-3β, 20 mM MOPS buffer (pH 7.0), 1 mM EDTA, 0.1% polyoxyethylene lauryl ether (23 Lauryl Ether; Brij 35), 5% glycerol, and 0.1% β-mercaptoethanol. After 20 minutes at room temperature, the reaction was terminated by the addition of the equivalent amount of 200 mM phosphoric acid solution. 90 μL of the reaction product was spotted onto a multiscreen PH plate (manufactured by Millipore) and washed with 100 mM phosphoric acid solution. The plate was dried, and 30 μL of MicroScint-O (manufactured by Packard BioScience) was added thereto. To evaluate inhibitory activity, cpm was counted using a scintillation counter. Here, Phospho GS Peptide 2 is an amino acid peptide having the following sequence: […]P)-Glu-Asp-Glu- Glu-Glu.
GSK-3 inhibitor activity values (IC50 values) of the compounds according to the present invention were measured by the method described above. As a result, inhibition activity of IC50<100 nM was confirmed in compounds of compound numbers 1, 35, 36, 37, 123, 157, 158, 160, 193, 234, and 263.

As usually defined, the IC50 is the concentration at which inhibition is half-maximal. With `O=C(NCCn1c(-c2sccc2Cl)c(-c2cccnc2)c2nc[nH]c(=S)c21)C(F)(F)F` [Compound 123], the IC50 was below 100 nM.

Turning to `O=C(NCCn1c(-c2sccc2Cl)c(NC(=O)c2ccccc2)c2nc[nH]c(=S)c21)c1ccc(F)cc1` [Compound 193, N-{2-[6-(3-chloro(2-thienyl))-7-(phenylcarbonylamino)-4-thioxo(3-hydropyrrolo[3,2-d]pyrimidin-5-yl)]ethyl}(4-fluorophenyl)carboxyamide], the IC50 was below 100 nM.

On to `O=C(NCCn1c(-c2sccc2Cl)c(Br)c2nc[nH]c(=S)c21)c1ccc(F)cc1` [Compound 158], for which the IC50 was below 100 nM.

For the compound `Nc1c(-c2sccc2Cl)n(CCNC(=O)c2ccc(F)cc2)c2c(=S)[nH]cnc12` [Compound 160, N-{2-[7-amino-6-(3-chloro(2-thienyl))-4-thioxo(3-hydropyrrolo[3,2-d]pyrimidin-5-yl)]ethyl}(4-fluorophenyl)carboxyamide], the IC50 is below 100 nM.

`O=C(NCCn1c(-c2sccc2Cl)c(Cl)c2nc[nH]c(=S)c21)c1ccc(F)cc1` [Compound 157]: the IC50 was below 100 nM.

For `CCn1nc(C)cc1C(=O)NCCn1c(-c2sccc2Cl)c(I)c2nc[nH]c(=S)c21` [Compound 234, N-{2-[6-(3-chloro(2-thienyl))-7-iodo-4-thioxo(3-hydropyrrolo[3,2-d]pyrimidin-5-yl)]ethyl}(1-ethyl-3-methylpyrazol-5-yl)carboxyamide], the IC50 is below 100 nM.

On to `S=c1[nH]cnc2c(I)c(-c3sccc3Cl)n(CCNc3ncnc4ccccc34)c12` [Compound 37, 6-(3-chloro(2-thienyl))-7-iodo-5-[2-(quinazolin-4-ylamino)ethyl]-3-hydropyrrolo[3,2-d]pyrimidin-4-thione], for which the IC50 is below 100 nM.

Turning to `O=C(NCCn1c(-c2sccc2Cl)c(I)c2nc[nH]c(=S)c21)c1ccc(F)cc1` [Compound 1, N-{2-[6-(3-chloro(2-thienyl))-7-iodo-4-thioxo(3-hydropyrrolo[3,2-d]pyrimidin-5-yl)]ethyl}(4-fluorophenyl)carboxyamide], the IC50 is below 100 nM.
